Assay results from ChEMBL document CHEMBL1201862, “PubChem BioAssay data set” (2004).
Activity calls are given as the source filed them.

Key:
[1] = viability of uninfected HEp-2 cells – cell-based, HTS, cytotoxicity control for RSV inhibitor project, dose response (AID 2410); format: functional; conditions: human respiratory syncytial virus
[2] = CMV-driven luciferase expression suppression in HEK293 – cell-based, luminescence, dry powder, counter-screen for Pax8 inhibitor project, dose response (AID 743020); format: functional
[3] = reduction of Shn3 3'UTR-driven luciferase in osteoblasts – cell-based, Clone20 osteoblasts, firefly luciferase, cherry-picked, dose response (AID 624132); format: functional;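 also: firefly luciferase luminescence from reporter carrying the Shn3 3'UTR in osteoblasts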
[4] = loss of viability in HepG2 cells – cell-based, CellTiter-Glo, cherry-picked, cytotoxicity control for Shn3 inhibitor project, dose response (AID 624134); format: functional
[5] = non-specific 3'UTR reporter inhibition in Clone20-Shn3RL – cell-based, Renilla luciferase, cherry-picked, counter-screen for Shn3 inhibitor project, dose response (AID 624133); format: functional
[6] = blockers of HIV-1 envelope-mediated cell-cell fusion – cherry-pick, dose response (AID 652057); format: functional, cell-based
[7] = viability loss in CEM21 cells – cell-based, CellTiter-Glo luminescence, cherry-picked, cytotoxicity control for viral fusion inhibitor project, dose response (AID 652042); format: functional;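 also: potency for signal decrease meaning cytotoxicity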
[8] = off-target signal loss in HeLa-CEM21 co-culture – HeLa F-luc CTL cells, cherry-picked, counter-screen for HIV-1 Env fusion inhibitor project, dose response (AID 652040); format: functional, cell-based;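 also: potency for signal decrease marking cytotoxic or nonspecific inhibition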
[9] = HIV-1 AD8 envelope cell-cell fusion blockers – cherry-pick, dose response (AID 652062); format: functional, cell-based;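 also: luciferase signal from cell-cell fusion driven by HIV-1 clade B AD8 Env; potency is for inhibitors of fusion seen as a drop in luminescence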
[10] = molecular target: T1, Caspase-6 (Homo sapiens, UniProt P55212); assay: inhibition of CASP6 peptide cleavage – biochemical, VEID-R110 fluorescence, cherry-pick, dose response (AID 720632)
T1 sequence (P55212 whole entry): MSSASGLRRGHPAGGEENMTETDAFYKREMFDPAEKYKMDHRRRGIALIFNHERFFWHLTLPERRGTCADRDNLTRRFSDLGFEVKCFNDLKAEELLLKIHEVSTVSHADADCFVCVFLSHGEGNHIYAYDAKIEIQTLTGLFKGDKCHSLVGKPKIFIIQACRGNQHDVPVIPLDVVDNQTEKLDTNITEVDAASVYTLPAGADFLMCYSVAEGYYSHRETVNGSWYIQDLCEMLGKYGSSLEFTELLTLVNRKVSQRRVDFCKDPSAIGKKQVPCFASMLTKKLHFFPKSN

[11] = molecular target: Caspase-7 (Homo sapiens, UniProt P55210); assay: caspase-7 enzyme inhibition, selectivity check – biochemical, DEVD-R110 fluorescence, cherry-pick, selectivity assay for caspase-6 inhibitor project, dose response (AID 743295); format: functional
Sequence of Caspase-7 (P55210 24-198 limits assumed): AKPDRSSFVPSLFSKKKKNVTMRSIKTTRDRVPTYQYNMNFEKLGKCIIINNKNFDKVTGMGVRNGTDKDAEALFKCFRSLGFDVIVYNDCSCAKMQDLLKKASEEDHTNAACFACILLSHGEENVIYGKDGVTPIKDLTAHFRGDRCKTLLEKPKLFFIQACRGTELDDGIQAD
Sequence of Caspase-7 (P55210 207-303 limits assumed): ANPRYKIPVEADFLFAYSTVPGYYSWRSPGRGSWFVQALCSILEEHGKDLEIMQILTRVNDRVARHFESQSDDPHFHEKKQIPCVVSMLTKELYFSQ

[12] = molecular target: Caspase-8 (Homo sapiens, UniProt Q14790); assay: inhibitors of purified CASP8 protease – biochemical, Z-IETD-R110 fluorescence, cherry-picked samples, selectivity assay for caspase-6 inhibitor project, dose response (AID 743294)
Sequence of Caspase-8 (Q14790 217-374 limits assumed): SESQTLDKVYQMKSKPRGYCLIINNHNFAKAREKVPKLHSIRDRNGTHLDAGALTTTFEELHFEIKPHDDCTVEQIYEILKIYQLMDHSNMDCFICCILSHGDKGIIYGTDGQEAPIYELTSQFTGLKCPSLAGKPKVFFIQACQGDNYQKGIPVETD
Sequence of Caspase-8 (Q14790 385-479 limits assumed): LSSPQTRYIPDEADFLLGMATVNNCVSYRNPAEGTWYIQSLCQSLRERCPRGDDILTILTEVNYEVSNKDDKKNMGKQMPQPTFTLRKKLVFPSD

[13] = molecular target: Eukaryotic translation initiation factor 4E (Mus musculus, UniProt P63073); assay: blockers of eIF4G binding by eIF4E – biochemical, TR-FRET, dose response (AID 855); format: functional;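 also: potency for disrupting eIF4E binding to eIF4GI seen as loss of FRET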
Sequence of Eukaryotic translation initiation factor 4E (P63073 whole entry): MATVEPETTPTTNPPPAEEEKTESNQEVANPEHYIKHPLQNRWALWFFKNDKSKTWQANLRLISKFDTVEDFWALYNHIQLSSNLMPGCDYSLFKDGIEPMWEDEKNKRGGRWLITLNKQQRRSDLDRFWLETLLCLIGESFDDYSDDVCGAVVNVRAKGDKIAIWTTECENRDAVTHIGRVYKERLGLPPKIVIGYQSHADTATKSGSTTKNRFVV

[14] = reduced cellular PGC1a acetyl-lysine signal – cell-based, cherry-picked samples, dose response (AID 720514); format: functional;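 also: potency may reflect raised or lowered acetylation signal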
[15] = molecular target: T2, Kappa-type opioid receptor (Homo sapiens, UniProt P41145); format: functional
T2 sequence (P41145 whole entry): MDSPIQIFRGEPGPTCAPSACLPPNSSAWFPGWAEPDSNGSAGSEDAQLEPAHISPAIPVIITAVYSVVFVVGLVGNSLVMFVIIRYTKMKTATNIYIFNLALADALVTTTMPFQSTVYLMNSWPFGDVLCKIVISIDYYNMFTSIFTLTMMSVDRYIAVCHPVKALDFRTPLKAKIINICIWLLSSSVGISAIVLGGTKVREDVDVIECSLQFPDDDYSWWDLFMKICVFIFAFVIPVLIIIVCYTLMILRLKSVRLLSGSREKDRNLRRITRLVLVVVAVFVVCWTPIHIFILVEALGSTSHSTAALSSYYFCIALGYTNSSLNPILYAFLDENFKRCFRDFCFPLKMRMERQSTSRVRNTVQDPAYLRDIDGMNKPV

[16] = molecular target: Beta-galactosidase (Escherichia coli, UniProt Q8VNN2); format: functional
Sequence of Beta-galactosidase (Q8VNN2 whole entry): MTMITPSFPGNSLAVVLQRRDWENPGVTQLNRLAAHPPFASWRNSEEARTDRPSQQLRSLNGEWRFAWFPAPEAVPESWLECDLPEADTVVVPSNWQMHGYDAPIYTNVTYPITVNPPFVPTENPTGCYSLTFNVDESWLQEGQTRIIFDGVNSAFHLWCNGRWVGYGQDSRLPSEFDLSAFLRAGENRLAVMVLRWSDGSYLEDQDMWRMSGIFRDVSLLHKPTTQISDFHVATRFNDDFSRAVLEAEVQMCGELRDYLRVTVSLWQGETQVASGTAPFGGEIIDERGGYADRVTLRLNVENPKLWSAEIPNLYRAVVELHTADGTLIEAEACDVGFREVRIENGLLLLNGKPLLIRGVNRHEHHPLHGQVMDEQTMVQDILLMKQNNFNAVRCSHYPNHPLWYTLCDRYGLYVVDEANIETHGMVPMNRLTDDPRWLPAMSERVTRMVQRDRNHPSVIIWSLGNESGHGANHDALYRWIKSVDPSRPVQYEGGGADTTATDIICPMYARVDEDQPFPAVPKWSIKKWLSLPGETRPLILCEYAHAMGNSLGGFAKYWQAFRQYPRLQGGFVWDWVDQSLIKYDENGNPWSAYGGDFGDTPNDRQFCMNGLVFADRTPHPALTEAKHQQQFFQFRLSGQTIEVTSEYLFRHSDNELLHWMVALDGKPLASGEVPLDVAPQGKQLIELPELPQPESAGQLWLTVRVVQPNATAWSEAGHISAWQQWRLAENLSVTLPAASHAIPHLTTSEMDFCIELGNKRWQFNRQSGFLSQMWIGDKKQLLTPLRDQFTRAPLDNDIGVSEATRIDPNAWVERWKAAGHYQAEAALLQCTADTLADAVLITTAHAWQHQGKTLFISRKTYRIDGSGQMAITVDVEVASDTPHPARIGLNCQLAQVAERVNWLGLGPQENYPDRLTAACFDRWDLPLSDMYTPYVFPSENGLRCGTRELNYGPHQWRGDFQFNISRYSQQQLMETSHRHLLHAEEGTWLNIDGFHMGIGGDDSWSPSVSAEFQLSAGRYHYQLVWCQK

[17] = molecular target: T2, Kappa-type opioid receptor; format: functional; remark: listed apart in the source
[18] = potency of ADAM10 substrate cleavage blockers – biochemical, QFRET, dose response (AID 743254);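 also: ADAM10 enzyme with the DM2 quenched FRET peptide as substrate; EDANS fluorescence gain as the protease cuts the substrate; inhibitor potency against ADAM10 proteolytic activity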
[19] = molecular target: T3, Disintegrin and metalloproteinase domain-containing protein 17 (Homo sapiens, UniProt P78536); assay: exosite inhibitors of ADAM17, dose response, biochemical (AID 743260)
T3 sequence (P78536 whole entry, the tested form may be a part): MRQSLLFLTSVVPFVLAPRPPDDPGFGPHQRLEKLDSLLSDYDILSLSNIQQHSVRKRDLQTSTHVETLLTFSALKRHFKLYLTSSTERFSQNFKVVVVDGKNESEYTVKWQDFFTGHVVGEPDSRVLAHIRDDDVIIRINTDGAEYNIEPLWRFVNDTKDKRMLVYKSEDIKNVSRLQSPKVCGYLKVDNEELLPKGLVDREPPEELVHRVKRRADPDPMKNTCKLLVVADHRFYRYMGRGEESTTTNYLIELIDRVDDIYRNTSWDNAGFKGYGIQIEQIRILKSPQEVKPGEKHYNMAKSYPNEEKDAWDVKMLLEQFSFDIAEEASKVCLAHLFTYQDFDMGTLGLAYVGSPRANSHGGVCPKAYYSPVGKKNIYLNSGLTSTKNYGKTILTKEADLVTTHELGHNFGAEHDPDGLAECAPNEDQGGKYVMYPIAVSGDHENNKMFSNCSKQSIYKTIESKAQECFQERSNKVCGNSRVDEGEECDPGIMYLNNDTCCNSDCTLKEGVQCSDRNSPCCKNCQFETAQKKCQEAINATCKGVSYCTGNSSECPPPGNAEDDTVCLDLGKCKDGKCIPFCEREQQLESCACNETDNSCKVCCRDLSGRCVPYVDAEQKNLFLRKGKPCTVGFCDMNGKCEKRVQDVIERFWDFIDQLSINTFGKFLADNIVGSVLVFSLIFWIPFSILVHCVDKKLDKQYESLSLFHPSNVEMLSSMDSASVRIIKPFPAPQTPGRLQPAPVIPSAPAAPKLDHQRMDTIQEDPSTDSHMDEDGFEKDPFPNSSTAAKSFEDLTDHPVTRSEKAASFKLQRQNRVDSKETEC

[20] = molecular target: T3, Disintegrin and metalloproteinase domain-containing protein 17; assay: inhibition of ADAM17 substrate cleavage – biochemical, quenched FRET substrate, counter-screen for ADAM10 exosite inhibitor project, dose response (AID 743253)
[21] = Late stage assay provider results from the probe development effort to identify selective inhibitors of heat shock protein 90 (HSP90): Absorbance-based cell proliferation assay in SKBR3 cells.; format: functional; conditions: SK-BR-3
[22] = Late stage assay provider results from the probe development effort to identify selective inhibitors of heat shock protein 90 (HSP90): Absorbance-based cell proliferation assay in MCF7 cells.; format: functional
[23] = system: HeLa; assay: viability loss in HeLa cells – cell-based, ATP luminescence, cherry-pick samples, cytotoxicity control, dose response (AID 687004); format: functional; conditions: Homo sapiens
[24] = molecular target: Potassium channel subfamily K member 9 (Homo sapiens, UniProt Q9NPC2); assay: KCNK9 flux blockade, concentration-response – cell-based, FluxOR thallium flux, selectivity assay for TASK1 inhibitor project, SAR follow-up (AID 652211); format: functional;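 also: potency is for inhibitors of the channel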
Sequence of Potassium channel subfamily K member 9 (Q9NPC2 whole entry): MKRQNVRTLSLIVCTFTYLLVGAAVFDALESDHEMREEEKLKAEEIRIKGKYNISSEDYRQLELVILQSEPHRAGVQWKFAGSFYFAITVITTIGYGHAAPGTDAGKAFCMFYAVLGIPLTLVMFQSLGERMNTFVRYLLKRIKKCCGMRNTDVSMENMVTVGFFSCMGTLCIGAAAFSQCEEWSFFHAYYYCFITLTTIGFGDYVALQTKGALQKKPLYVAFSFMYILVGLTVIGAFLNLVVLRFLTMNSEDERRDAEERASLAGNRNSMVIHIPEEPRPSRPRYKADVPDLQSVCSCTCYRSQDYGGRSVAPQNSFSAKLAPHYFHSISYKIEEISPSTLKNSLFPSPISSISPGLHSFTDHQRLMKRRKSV

[25] = molecular target: Potassium channel subfamily K member 3 (Homo sapiens, UniProt O14649); assay: inhibition of human KCNK3 channel flux – CHO cells, FluxOR thallium flux, SAR follow-up (AID 652212); format: functional
Sequence of Potassium channel subfamily K member 3 (O14649 whole entry): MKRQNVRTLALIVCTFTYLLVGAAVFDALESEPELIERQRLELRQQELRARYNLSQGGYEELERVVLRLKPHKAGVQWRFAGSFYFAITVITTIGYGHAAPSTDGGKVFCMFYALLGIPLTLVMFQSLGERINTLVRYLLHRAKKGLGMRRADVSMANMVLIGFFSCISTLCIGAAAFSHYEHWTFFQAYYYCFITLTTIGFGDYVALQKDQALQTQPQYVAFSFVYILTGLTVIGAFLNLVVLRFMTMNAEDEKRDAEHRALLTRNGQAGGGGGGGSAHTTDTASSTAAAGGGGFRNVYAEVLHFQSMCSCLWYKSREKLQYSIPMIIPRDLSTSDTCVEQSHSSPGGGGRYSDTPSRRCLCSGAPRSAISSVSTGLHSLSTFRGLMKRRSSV

[26] = molecular target: T4, Estrogen receptor (Homo sapiens, UniProt P03372);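 also: potency for inhibiting coactivator peptide recruitment to the receptor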
T4 sequence (P03372 whole entry): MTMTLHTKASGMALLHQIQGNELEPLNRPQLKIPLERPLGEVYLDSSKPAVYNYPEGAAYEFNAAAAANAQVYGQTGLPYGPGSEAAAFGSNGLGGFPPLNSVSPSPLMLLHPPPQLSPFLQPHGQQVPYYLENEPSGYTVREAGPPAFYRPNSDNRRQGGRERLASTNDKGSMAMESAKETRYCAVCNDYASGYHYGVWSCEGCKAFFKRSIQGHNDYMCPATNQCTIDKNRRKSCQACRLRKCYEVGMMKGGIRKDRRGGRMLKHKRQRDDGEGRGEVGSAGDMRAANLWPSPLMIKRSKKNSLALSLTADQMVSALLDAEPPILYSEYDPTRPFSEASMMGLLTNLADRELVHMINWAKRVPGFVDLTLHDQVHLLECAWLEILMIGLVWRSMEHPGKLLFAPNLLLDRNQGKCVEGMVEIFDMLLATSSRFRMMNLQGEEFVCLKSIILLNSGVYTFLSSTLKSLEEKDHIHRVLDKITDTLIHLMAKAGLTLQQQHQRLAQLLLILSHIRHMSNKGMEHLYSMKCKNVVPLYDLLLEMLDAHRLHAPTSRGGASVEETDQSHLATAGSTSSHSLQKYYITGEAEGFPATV

[27] = Trypanosoma cruzi growth suppression in host cells – NIH3T3 host cells, beta-gal luminescence, confirmation (AID 2044); format: functional, cell-based;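 also: intracellular parasites grown in NIH/3T3 mouse fibroblasts as host cells; luminescent beta-galactosidase reporter signal from transgenic T. cruzi replicating inside host cells; inhibitors lower the luminescence signal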
[28] = NIH3T3 cell viability loss – ATP luminescence, mouse fibroblasts, counter-screen, dose response (AID 2010); format: functional, cell-based;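 also: cells exposed to compound for about 90 hours before reading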
[29] = blockers of HIV-1 ZM109 envelope-driven cell-cell fusion – HeLa effector, CEM target cells, luciferase, cherry-pick, dose response (AID 652058); format: functional, cell-based;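 also: luciferase signal from HIV-1 Env mediated cell-cell fusion of effector and target cells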
[30] = viability loss in CEM21 cells – cell-based, plate reader, dry powder, cytotoxicity control, dose response (AID 687026); format: functional

Cc1nn(CCO)c2nc(-c3cccs3)cc(C(F)(F)F)c12
CC50 [1]: > 50 µM (active)
AC50 [2]: 26.3 µM (active)

Nc1cc2c(cc1Br)nc(O)c1ccccc12
AC50 [3]: 5.46 µM (active)
AC50 [4]: 45.8 µM (active)
AC50 [5]: 22.9 µM (active)
AC50 [6]: 3.76 µM (active)
AC50 [7]: 9.39 µM (active)
AC50 [8]: 22.9 µM (active)
AC50 [9]: 21.6 µM (active)
AC50 [10]: 3.87 µM (active)
AC50 [11]: 2.6 µM (active)
AC50 [12]: 5.26 µM (active)

COCCSc1ccccc1C(=O)Nc1cc(C)on1
IC50 [13]: > 64 µM (inactive)
AC50 [14]: 1.06 µM (active)

COCC/N=c1\scc(-c2cc(OC)ccc2OC)n1/N=C/c1c[nH]c2ccccc12
IC50 [15]: 9.65 µM (active)
EC50 [16]: > 31.5 µM (inactive)
IC50 [17]: 3.86 µM
IC50 [18]: > 69.5 µM (inactive)
IC50 [19]: > 69.5 µM (inactive)
IC50 [20]: > 69.5 µM (inactive)

COc1ccc(CCN/C=C2/C=C(Br)C(=O)OC2=O)cc1
IC50 [21]: 5.7 µM (active)
IC50 [22]: 1.8 µM (active)

COC(=O)C1=C(C)N(Cc2ccc(F)cc2)C(=S)NC1c1ccc(Cl)cc1 (stereo unspecified)
AC50 [23]: > 52 µM (inactive)

CCOc1ccccc1NC(=O)c1cccc(NC(=O)c2ccccc2OC(F)(F)F)c1
IC50 [24]: 0.8 µM (active)
IC50 [25]: 0.114 µM (active)

COc1ccc(-c2nn(C)c(=O)c3ccccc23)cc1NC(=O)Cn1nc(C)c2ccccc2c1=O
IC50 [26]: > 50 µM (not active)
EC50 [27]: 1.46 µM (active)
EC50 [28]: > 60 µM (not active)
AC50 [6]: 4.07 µM (active)
AC50 [29]: 6.21 µM (active)
AC50 [30]: > 70 µM (inactive)
